Test: MIC of test compounds against various organisms
Assay type: cell-based, S. aureus, S. pneumoniae, H. influenzae, E. faecalis
Protocol: The MIC (μg/ml) of test compounds against various organisms was determined: S. aureus Oxford, S. aureus WCUH29, S. pneumoniae 1629, S. pneumoniae N1387, S. pneumoniae ERY 2, H. influenzae Q1, E. faecalis 7.

SMILES | MIC
COc1ccc2nccc(NC(=O)N3CCN(CC(=O)c4cnc5ccccc5n4)CC3)c2n1 [Example 10, 4-(2-Oxo-2-quinoxalin-2-yl-ethyl)-piperazine-1-carboxylic acid (6-methoxy-[1,5]naphthyridin-4-yl)-amide.] | ≤ 2 µg/mL
COc1ccc2nccc(NC(=O)N3CCN(CC(=O)c4ccc5c(c4)NC(=O)CO5)CC3)c2n1 [Example 12, 4-[2-Oxo-2-(3-oxo-3,4-dihydro-2H-benzo[1,4]oxazin-6-yl)-ethyl]piperazine-1-carboxylic acid (6-methoxy-[1,5]naphthyridin-4-yl)-amide.] | ≤ 0.25 µg/mL
